From patent US12084415B2, “Biomolecule-polymer-pharmaceutical agent conjugates for delivering the pharmaceutical agent” (Massachusetts Institute of Technology, priority 2021, dated 2024)

System: BT474 xenograft tumor
Assay: Antitumor efficacy in BT474 xenograft tumor model
Settings: for tumor volume at day 30: 3 doses
[1] = PROTAC (ARV771) payload, 3 doses once a week

Protocol: The antitumor efficacy was monitored thorough the measurement of tumor volume size.
We used the ABC platform for antibody targeted delivery of PROTAC to tumors for cancer therapy. We chose ARV771 as the payload. We used PROTAC-ABC (ABC_ARV771) to perform in vivo anti-cancer study. The HER2 overexpressed BT474 xenograft mice model was also used for this study. 6 different treatments were performed on mice bearing ˜50 mm^3 volume tumor. 3 doses for treatment were performed once a week.

| Compound | tumor volume at day 30 (PROTAC (ARV771) payload) | tumor volume [1] | tumor volume (one dose injection, comparison with Kadcyla) |
| --- | --- | --- | --- |
| Cc1sc2c(c1C)C(c1ccc(Cl)cc1)=N[C@@H](CC(=O)Nc1ccc(OCCOCCOCCOCCNc3cccc4c3C(=O)N(C3CCC(=O)NC3=O)C4=O)cc1)c1nnc(C)n1-2 (some centres unmarked) [ARV825] | no therapeutic effects | little therapeutic effects | – |
| Cc1ncsc1-c1ccc([C@H](C)NC(=O)[C@@H]2C[C@@H](O)CN2C(=O)[C@@H](NC(=O)COCCCOCCNC(=O)C[C@@H]2N=C(c3ccc(Cl)cc3)c3c(sc(C)c3C)-n3c(C)nnc32)C(C)(C)C)cc1 [ARV771] | no therapeutic effects | little therapeutic effects | – |
| ado-trastuzumab emtansine [ADC] | – | – | good anticancer efficiency |
